Data: patent US7226746B1, “Method for screening for anti-amyloidogenic properties and method for treatment of neurodegenerative disease” (The Regents of the University of California, priority 1998, dated 2007)

What was measured:
β-synuclein δ2 = target: T1, β-synuclein δ2 (Homo sapiens, UniProt Q16143, A63V/F71V/H65N/INS70[…]/L66V/S64T/S72E); assay: Inhibition of high temperature aggregation by Congo red (β-synuclein δ2); format: biochemical; conditions: 20 μM protein, pH 6.9, 65° C., 20 hours, micromolar concentrations of Congo red
T1 construct: 6xHis (cleaved yes); made in house; host or cells: E. coli
Description: (§1) In order to test the susceptibility of the newly constructed β-synuclein mutants to aggregation, an aggregation assay can be performed. To do this, 10–20 μM of each of the mutant proteins are incubated in a total volume of 20 μl with a final concentration of 100 mM sodium acetate, pH 6.9. Aggregation can be induced under a variety of conditions, for instance, low pH and high temperature. SDS-PAGE analysis/immunoblotting or Thioflavine-S staining provides means for evaluating the reacted samples, the methods of which are described above and well known to those in the art.
(§2) Since previous studies have shown that the aggregation of amyloidogenic proteins were to some extent inhibited by Congo red, increasing concentrations of Congo red were added in the present aggregation system. […] As is shown in FIG. 5, the monomer bands were slightly but surely stabilized by treatment with micromolar concentrations of Congo red, which is consistent with other reported studies.

NACP/α-synuclein [1] = target: T2, NACP/α-synuclein (Homo sapiens, UniProt P37840); assay: Inhibition of high temperature aggregation by Congo red (NACP/α-synuclein); format: biochemical; design: which encodes full length NACP/α-synuclein 140; 6xHis (cleaved yes); made in house; host or cells: E. coli; conditions: 20 μM protein, pH 6.9, 65° C., 20 hours, micromolar concentrations of Congo red
Description: as §1, §2

[2] = Specificity of ferric ion-induced aggregation: recombinant synuclein proteins treated with ferric ion, immunoblot; format: physicochemical, human; conditions: 100 μM ferric ion
Description: (§3) The cells are harvested and re-suspended in 50 mM Tris-HCl, pH 8.5, containing protease inhibitors. Following sonication and centrifugation of the re-suspension, the supernatant is applied to a Ni-NTA column and eluted with 20 mM Tris-HCl, pH 8.5, containing 100 mM KCl, 100 mM imidazole, […] v/v glycerol and 10 mM β-mercaptoethanol. The eluted fusion protein is dialyzed against 50 mM Tris-HCl, pH 8.5, cleaved with recombinant TEV protease and again applied to a Ni-NTA column. The recombinant NACP/α-synuclein is isolated in the flow through fractions, pooled and stored at −20° C. until use.
(§4) Prior to experimentation, each of the recombinant proteins need to be desalted by way of passage through PD 10 columns (Pharmacia, Piscataway, N.J.) in water and then adjusted to a final concentration of 5 μM. NACP/α-synuclein protein (1 μl) is incubated in a total volume of 20 μl of buffer containing 20 mM Tris-HCl, pH 7.4. To perform the immuno-blotting analysis, each sample is resolved by SDS-PAGE (15%) and blotted onto nitrocellulose membrane (Schleicher & Schuell, Keene, N.H.). The blotted membrane is blocked with Tris-Buffered saline (TBS; 20 mM Tris-HCl, pH 7.5 and 150 mM NaCl) containing 3% BSA, followed by incubation with anti-C-terminal rabbit polyclonal antibody (1:1000) in TBS containing 1% BSA. […]

[3] = Thioflavine-S staining of ferric ion-induced in vitro aggregates; format: physicochemical, human
Description: In order to determine if iron-induced NACP/α-synuclein aggregates display amyloid-like characteristics, Thioflavine-S staining is performed.
In order to determine whether the ferric-ion induced in vitro aggregates of NACP/α-synuclein display amyloid-like characteristics, Thioflavine-S staining experiments were performed.

[4] = Aggregation assay under high temperature conditions, SDS-PAGE analysis; format: physicochemical, human; conditions: 20 μM protein, 100 mM sodium acetate, pH 6.9, 65° C.
Description: as §1
Recombinant proteins were produced using a standard E. coli system and high purity products were generated using SDS-PAGE analysis, seen as FIG. 4.
After 8 hours incubation, the bands corresponding to possible dimers became visible and, after 20 hours incubation, bands corresponding to dimers and higher smears in both the separating and stacking portions of the gels was observed.

[5] = Thioflavine-S staining of aggregates formed at pH 6.9, 65 C; format: physicochemical, human; conditions: pH 6.9, 65 C conditions
Description: In order to determine whether the aggregates resulting from aggregation reactions of PROEX-1-β-synuclein 61 and PROEX-1-β-synuclein δ2 display amyloid-like characteristics, 10 μl aliquots of the protein preparations are obtained using the above-described procedures are pipetted onto glass slides and stained with Thioflavine-S. The results are visually analyzed using a confocal microscope, the method of which is well known to those in the art.

NACP/α-synuclein [6] = target: T2, NACP/α-synuclein; assay: Iron-catalyzed oxidative reaction (metal ion plus hydrogen peroxide) aggregation of NACP/α-synuclein, immunoblotting; format: biochemical; design: which encodes full length NACP/α-synuclein 140; 6xHis (cleaved yes); made in house; host or cells: E. coli DH5α
Description: Prior to experimentation, each of the recombinant proteins need to be desalted by way of passage through PD 10 columns (Pharmacia, Piscataway, N.J.) in water and then adjusted to a final concentration of 5 μM. NACP/α-synuclein protein (1 μl) is incubated in a total volume of 20 μl of buffer containing 20 mM Tris-HCl, pH 7.4. To perform the immuno-blotting analysis, each sample is resolved by SDS-PAGE (15%) and blotted onto nitrocellulose membrane (Schleicher & Schuell, Keene, N.H.). The blotted membrane is blocked with Tris-Buffered saline (TBS; 20 mM Tris-HCl, pH 7.5 and 150 mM NaCl) containing 3% BSA, followed by incubation with anti-C-terminal rabbit polyclonal antibody (1:1000) in TBS containing 1% BSA. The blocked membrane is then incubated with peroxidase-labeled anti-rabbit IgG (Amersham) (1:1000) and visualized using the ECL immuno-blotting system (Amersham, Cleveland, Ohio), the use of which is well known to those in the art.
It was hypothesized that aggregation of NACP/α-synuclein might be linked to the iron-catalyzed oxidative reactions, represented in FIG. 2a, illustrating the hypothesis for the association of NACP/α-synuclein aggregation with iron-catalyzed oxidative reaction (Harber-Weiss reaction). In order to determine if an iron-catalyzed oxidative reaction promotes aggregation of NACP/α-synuclein, the human recombinant form of this molecule was incubated with ferrous ion (100 μM) and hydrogen peroxide. […] Ferrous ion was not included in lanes 8–10. The position of molecular weight markers (kD) are indicated on left). […] Other transition metals were also examined for their effect on NACP/α-synuclein aggregation.

[7] = target: T3, human recombinant NACP/α-synuclein 140 (Homo sapiens, UniProt P37840); assay: Ferric ion-induced aggregation of NACP/α-synuclein 140, immunoblotting analysis; format: biochemical; conditions: 4 hour incubation, pH 7.4, 37° C.; 0-1 mM ferric ion, concentration dependent
T3 construct: which encodes full length NACP/α-synuclein 140; 6xHis (cleaved yes); made in house; host or cells: E. coli DH5α
Description: as §3, §4

In the case of Nc1c(/N=N/c2ccc(-c3ccc(/N=N/c4cc(S(=O)(=O)O)c5ccccc5c4N)cc3)cc2)cc(S(=O)(=O)O)c2ccccc12 [Congo red], the “inhibition of aggregation of β-synuclein δ2” value (β-synuclein δ2) is reported as “partly inhibited aggregation” and the “inhibition of aggregation of NACP/α-synuclein” value (NACP/α-synuclein [1]) is reported as “partly inhibited aggregation”.
In the case of “β-synuclein: human recombinant NACP/α-synuclein-related protein with a partially incomplete NAC domain; non-amyloidogenic”, the “aggregation of the protein on treatment with ferric ion” value [2] is reported as “not aggregated”, the “Thioflavine-S reactivity of ferric ion-induced aggregates” value [3] is reported as “not” and the “aggregation of the protein under high temperature conditions (SDS-PAGE)” value [4] is reported as “showed no aggregation”. For the same compound, the “Thioflavine-S staining of the protein” value [5] was “negative result”.
With OO [hydrogen peroxide] the “aggregation of NACP/α-synuclein with hydrogen peroxide in the presence of ferrous ion” value (NACP/α-synuclein [6]; NACP/α-synuclein 1 μM, ferrous ion 100 μM, 1 nM-100 μM H2O2) was “dose-dependent aggregation” and the “aggregation of NACP/α-synuclein with hydrogen peroxide alone” value (NACP/α-synuclein [6]; no ferrous ion, 10-100 μM H2O2) was “no remarkable changes”.
With manganese the “aggregation of NACP/α-synuclein by other transition metals in the presence of hydrogen peroxide” value (NACP/α-synuclein [6]; in the presence of hydrogen peroxide) was “failed to induce the aggregation”.
For [Fe+3] [ferric ion], the “aggregation of NACP/α-synuclein 140 induced by the ion” value [7] was “induced aggregation”.
